Structures can show the parent of a compound that is named as a salt. Where two headings read alike, the source gives them in different places.
Assays:
[1] = PGE2 activity after storage at 60° C in glyme or triethylene glycol-dimethyl ether; format: physicochemical; details: nitrogen
Procedure: A formulation is prepared having 1 mg. PGE2 per ml. 1,2-dimethoxyethane. After 12 days storage at 60° C. under a nitrogen atmosphere, the PGE2 assays 100% of its initial activity.
A formulation is prepared having 1 mg. PGE2 per ml. of triethylene glycol-dimethyl ether. After 5 days storage at 60° C. under a nitrogen atmosphere, the PGE2 assays 100% of its initial activity.

[2] = PGE2 activity after storage at 80° C in polyethylene glycol-550-dimethyl ether; format: physicochemical; details: 1 mg PGE2, 0.01% edetic acid, 0.01% BHA, 0.01% BHT per ml polyethylene glycol-550-dimethyl ether, nitrogen, 18 days
Procedure: The following formulations are prepared having 1 mg. PGE2 per ml. of polyethylene glycol-550-dimethyl ether, and the additional material(s) as set forth below.
A formulation is prepared having 1 mg. PGE2 , 0.01% edetic acid, 0.01% BHA and 0.01% BHT per ml. polyethylene glycol-550-dimethyl ether, and sealed in an ampule under nitrogen atmosphere.

[3] = PGE2 activity after storage in polyethylene glycol comparison formulations; format: physicochemical
Procedure: By comparison, 1 mg. PGE2 and 1 ml. polyethylene glycol 400 assays 54% PGE2 activity after storage for two months at 45° C.; 0.2 mg. PGE2 in 2.7598 g. polyethylene glycol 4,000 assays 70% PGE2 activity after storage for 6 months at room temperature and 72% PGE2 activity after storage for 3 months at 45° C.; a suppository of 0.2 mg. PGE2 in 2.7298 g. base comprising 2% polyethylene glycol 4,000 and 98% polyethylene glycol 1,000 assays 62% PGE2 activity after storage for six months at room temperature; a formulation of PGE2 in polyethylene glycol 400 assays 73% PGE2 activity after 4 months at room temperature; and a formulation of PGE2 in polyethylene glycol 4000 assays 82% PGE2 activity after 5 months at room temperature.

[4] = General chemical stability of prostaglandins; format: physicochemical; details: with dimethyl ether of polyethylene glycol 550, extended period above room temperature
Description: See, for example, Brummer J. Pharm. Pharmac. 23, 804 (1971), and Karim et al., European J. Pharmacol. 4, 416 (1968). It would, therefore, be desirable to have a prostaglandin preparation wherein the prostaglandin material is stabilized by the vehicle material.
The above and still further objects, features, and advantages of the present invention are achieved, in accordance therewith, by admixing a pharmaceutically active quantity of an active medicament material with a dialkylated mono- or poly-alkylene glycol optionally including an antioxidant for the glycol vehicle.

[5] = literature: Brummer 1971; Karim et al. 1968; cited from earlier work
[6] = Decomposition of aspirin vs. time at 80° C in vehicle, with extrapolated shelf-life; format: physicochemical; details: for shelf-life at 25° C: extrapolated from 80° C
Procedure: A formulation is prepared having 0.5 g. aspirin and 0.05% BHA per 1.0 g. polyethylene glycol-750-dimethyl ether, and stored at 80° C. Decomposition of the aspirin is measured vs. time. The time for 10% decomposition is 27 hours. This reflects approximately a 30 month shelf-life at 25° C. This can be compared to a published report[Jun et al., J. Pharm. Sec.
The time for 10% decomposition (t90) is 24 hours. This reflects approximately a 30 month shelf-life at 25° C. Thus, this Example describes the preparation of a liquid aspirin formulation which is stable for long periods of time at or about room temperature.
Sciences, 53, 815-818 (July, 1964).

[7] = in several polyethylene glycols, cited from earlier work
[8] = Chloramphenicol activity after storage at 80° C, with extrapolated shelf-life; details: for chloramphenicol percent of initial activity: 80° C
[9] = Nystatin activity after storage at 80° C; format: physicochemical; details: for nystatin percent of initial activity: 0.5 mg/ml in polyethylene glycol-350-dimethyl ether, 0.05% BHA, under air
Description: Thus, the polyethylene glycol-350-dimethyl ether has a significant stabilizing effect on nystatin when compared to polyethylene glycol 400.

[10] = Oleic acid diethanolamide activity after storage at 80° C, with extrapolated shelf time; format: physicochemical
lipase = assay: In vitro lipase inhibition; format: biochemical
[11] = Storage stability of tetracyclines in cream-like and comparison formulations; details: for oxytetracycline hydrochloride percent of initial activity: Example XXXIX cream; for tetracycline activity remaining: after two weeks, 20160 min; for tetracycline activity remaining / stability of comparison formulation: room temperature
[12] = Palmitic acid diethanolamide stability at 80° C; format: physicochemical; details: under air, 14 days
Description: The formulation remains undecomposed after 14 days. The same result is attained with a formulation which additionally contains 0.05% BHA.

[13] = In vitro human skin penetration of labeled (H^3) tetracycline hydrochloride; details: cream-like preparation vs 0.5% in 75% propylene glycol and 0.05% in pH 6.6 buffer (both saturated solutions)
[14] = polyethylene glycol 400 in place of dialkylated vehicle, 2 days
[15] = 0.05% tetracycline hydrochloride in pH 6.6 buffer
[16] = 0.5% tetracycline hydrochloride in 75% propylene glycol

Question: For `CCCCC[C@H](O)/C=C/[C@H]1[C@H](O)CC(=O)[C@@H]1C/C=C\CCCC(=O)O` [PGE2, 11α,15α-dihydroxy-9-keto-5,13-prostadienoic acid], which “PGE2 percent of initial activity” value ([1]; 1 mg/ml in 1,2-dimethoxyethane, 12 days) is on record?
Answer: Its value is 100%.

Question: What about the “PGE2 percent of initial activity” value ([1]; 1 mg/ml in triethylene glycol-dimethyl ether, 5 days) of the same compound?
Answer: The value was 100%.

Question: And the “PGE2 percent of initial activity” value [2]?
Answer: Its value is 100%.

Question: What about the “PGE2 activity after storage” value ([3]; 0.2 mg PGE2 in 2.7598 g polyethylene glycol 4,000, 3 months, 45° C, 129600 min) of the same compound?
Answer: The value was 72%.

Question: And the “PGE2 activity after storage” value ([3]; 0.2 mg PGE2 in 2.7598 g polyethylene glycol 4,000, 6 months, room temperature, 259200 min)?
Answer: Its value is 70%.

Question: And the “PGE2 activity after storage” value ([3]; 1 mg PGE2 and 1 ml polyethylene glycol 400, two months, 45° C, 86400 min)?
Answer: The value was 54%.

Question: What about the “PGE2 activity after storage” value ([3]; in polyethylene glycol 400, 4 months, room temperature, 172800 min) of the same compound?
Answer: Its value is 73%.

Question: And the “PGE2 activity after storage” value ([3]; in polyethylene glycol 4000, 5 months, room temperature, 216000 min)?
Answer: Its value is 82%.

Question: And the “PGE2 activity after storage” value ([3]; suppository, 0.2 mg PGE2 in 2.7298 g base (2% polyethylene glycol 4,000, 98% polyethylene glycol 1,000), six months, room temperature, 259200 min)?
Answer: Its value is 62%.

Question: What about the “chemical stability after storage” value [4] of the same compound?
Answer: Its value is “high degree of chemical stability”.

Question: And the chemical stability [5]?
Answer: Its chemical stability is “relatively unstable”.

Question: Which results are given for `CC(=O)Oc1ccccc1C(=O)O` [aspirin, acetylsalicylic acid]?
Answer: time for 10% decomposition (t90) ([6]; 100 mg aspirin per ml polyethylene glycol-350-dimethyl ether, under air, 80° C): 24 h; time for 10% decomposition ([6]; 0.5 g aspirin and 0.05% BHA per 1.0 g polyethylene glycol-750-dimethyl ether, 80° C): 27 h; shelf-life at 25° C ([6]; polyethylene glycol-350-dimethyl ether, under air): ~30 month; shelf-life at 25° C ([6]; polyethylene glycol-750-dimethyl ether with 0.05% BHA): ~30 month; time for 10% decomposition ([7]; 80° C, Jun et al. 1972): 2 h; shelf-life at 25° C ([7]; from published report Jun et al. 1972): 3.5 months

Question: For `O=C(N[C@H](CO)[C@H](O)c1ccc([N+](=O)[O-])cc1)C(Cl)Cl` [chloramphenicol], which “chloramphenicol percent of initial activity” value (shortened to “chloramphenicol percent”) ([8]; 0.5 mg/ml in polyethylene glycol-350-dimethyl ether, 0.05% BHA, under air, 2 days) is on record?
Answer: Its value is 95%.

Question: And the “chloramphenicol percent” value ([8]; 0.5 mg/ml in polyethylene glycol-350-dimethyl ether, 0.05% BHA, under air, 5 days)?
Answer: The value was 66%.

Question: What about the “chloramphenicol percent” value [8, 14] of the same compound?
Answer: Its value is 50%.

Question: And the “chloramphenicol percent” value ([8]; polyethylene glycol 400 in place of dialkylated vehicle, 5 days)?
Answer: The value was “less than 20%”.

Question: And the “shelf-life at room temperature” value ([8]; polyethylene glycol-350-dimethyl ether, 0.05% BHA, extrapolated from 80° C)?
Answer: The value was “at least 1 year”.

Question: For `C[C@@H]1[C@H](O)[C@@H](C)/C=C/C=C/CC/C=C/C=C/C=C/C=C/C(O[C@H]2O[C@H](C)[C@@H](O)[C@H](N)[C@@H]2O)CC2O[C@](O)(CC(O)C(O)CCC(O)CC(O)CC(O)CC(=O)O[C@H]1C)CC(O)C2C(=O)O` (stereo partly drawn) [nystatin], which “nystatin percent of initial activity” value ([9]; 2 days) is on record?
Answer: The value was 56%.

Question: What about the “nystatin percent of initial activity” value ([9]; 5 days) of the same compound?
Answer: Its value is “less than 40%”.

Question: And the “decomposition (loss of activity)” value [9, 14]?
Answer: The value was “total decomposition”.

Question: What does the source list for `CCCCCCCC/C=C\CCCCCCCC(=O)N(CCO)CCO` [oleic acid diethanolamide]?
Answer: oleamide percent of initial activity ([10]; 2 mg/ml in 1,2-dimethoxyethane with 0.025% BHT and 0.025% BHA, 5 weeks, 80° C, 50400 min): 96%; shelf time at 25° C ([10]; approximately, 1,2-dimethoxyethane with BHT and BHA, extrapolated from 80° C): 3-4 years; lipase inhibition (lipase): inhibits lipase

Question: Which results are given for `CN(C)C1C(=O)C(C(N)=O)=C(O)C2(O)C(=O)C3=C(O)c4c(O)cccc4C(C)(O)C3C(O)C12` (stereo not drawn) [oxytetracycline hydrochloride]?
Answer: oxytetracycline hydrochloride percent of initial activity ([11]; 2 months, 45° C, 86400 min): 92%; oxytetracycline hydrochloride percent of initial activity ([11]; 3 months, 37° C, 129600 min): 92%; oxytetracycline hydrochloride percent of initial activity ([11]; 4 months, 45° C, 172800 min): 75%

Question: With `CCCCCCCCCCCCCCCC(=O)N(CCO)CCO` [palmitic acid diethanolamide] as the compound, how does the decomposition after storage ([12]; 5 mg/ml in polyethylene glycol-350-dimethyl ether with 0.05% BHA) read?
Answer: The decomposition after storage was “undecomposed”.

Question: What about the decomposition after storage ([12]; 5 mg/ml in polyethylene glycol-350-dimethyl ether) of the same compound?
Answer: Its decomposition after storage is “undecomposed”.

Question: Which results are given for `CN(C)C1C(=O)C(C(N)=O)=C(O)C2(O)C(=O)C3=C(O)c4c(O)cccc4C(C)(O)C3CC12` (stereo not drawn) [tetracycline hydrochloride]?
Answer: skin penetration [13]: equivalent skin penetration; tetracycline activity remaining [11, 15]: less than 50%; stability of comparison formulation [11, 15]: highly unstable; tetracycline activity remaining [11, 16]: less than 50%; stability of comparison formulation [11, 16]: highly unstable; tetracycline hydrochloride percent of initial activity ([11]; Example XXXVIII cream: 1.0% drug, 79.0% polyethylene glycol-350-dimethyl ether, 20.0% polyethylene glycol-6000-dimethyl ether, 0.05% BHA, 4 months, 45° C, 175200 min): 98%
